Structures are written as SMILES.

With `COc1ccc2c(c1)nc1snc(C(=O)c3ncc(C)c(OC)c3C)n12`, the melting point (usually the temperature of the solid-liquid transition) was 170 to 171 °C.

Turning to `Clc1ncc(OC[C@@H]2CCCN2)cc1-c1ccccc1`, the melting point lay in the range of 75 to 80 °C.

`CCOC1C(=O)NC(=O)N1CCCc1ccccc1` (stereo not drawn) came in with a melting point of 64 °C. Next, `CC(C)(C)OC(=O)N1C=CN(CC#N)C(=O)[C@@H]1Cc1ccccc1`: 160 to 162 °C; `CCn1c(=O)c2c(nc(/C=C/c3cccc(OC(C)=O)c3)n2C)n(CC)c1=O`: 206 to 207 °C.

`CC(C)Nc1cc(-c2nc[nH]n2)nc(Cl)c1-c1c(F)cccc1Cl` showed a melting point of 152 °C. `Cc1ccc(-c2c3cc(C)ccc3nc3ccc(C)cc23)cc1` yielded a melting point of 210 to 211 °C. In turn, `CCNC(=O)c1c(C)cccc1C(C)(C)C` registered a melting point of 110 to 112 °C. For `COC(=O)[C@@H](Cc1ccccc1)Oc1c(Br)cc(-c2c3ccccc3c(Br)c3sc4ccccc4c23)cc1Br` the value was 138 to 140 °C; for `COC1=C(OC)C(=O)C2=C(CCC(CCn3ccccc3=O)CC2)C1=O`, 85 to 89 °C. Consider `CCNC(=O)C1(C/C=C/c2ccccc2)c2ccccc2-c2ccccc21`, for which the melting point was 144 °C. In the case of `COc1ccc2c3c1c(C)c(-c1ccc(O)cc1)n3CC(CCO)O2` (stereo not drawn), the melting point turned out to be 190 °C. The compound `Cc1nc(-c2ccc(O)cc2)[nH]c1Br` registered a melting point of 205 to 212 °C. For `CCOC(=O)N(CCN(C(=O)OCC)C1CCCCC1)C1CCCCC1` the value was 108 °C.

In turn, `O=c1c2cccnc2c(-c2ccccc2)cn1Cc1ccccc1` returned a melting point of 166 to 167 °C. Next, `Cc1cc(SC2=C(O)CC(C3CCCC3)(C3CCCC3)OC2=O)c(C(C)(C)C)cc1CO`: 158 to 160 °C; `COc1ccc(C=Cc2ccncc2)cc1`: 128 to 130 °C; `Cn1cncc1C(O)(c1ccc(-c2ccc(Cl)cc2)cc1)c1ccc2c(c1)c(-c1cccc(Cl)c1)cc(=O)n2C` (stereo not drawn): 236 °C. For `COc1cc(C(=O)c2ccccc2F)cc([N+](=O)[O-])c1O` the value was 127 to 129 °C. Next, `CN(C)C(=O)CCc1c(-c2ccccc2)n(C)c(=O)c2ccccc12`: 166 °C; `CCOC(=O)/C=C(/c1ccc(OC)cc1)c1cc(C)cc(Cl)c1`: 83 to 85 °C.

The compound `CCOC(=O)c1cnc2scc(C)n12` returned a melting point of 45 °C. As to `CS(=O)(=O)Nn1c(=O)[nH]c2cc([N+](=O)[O-])c(-n3cnc(CO)c3)cc2c1=O`, the melting point is greater than 300 °C. As to `COc1cc(-n2cnc3cc(-c4ccc(Cl)cc4)sc3c2=O)ccc1OCC1(O)CC(F)(F)C1`, the melting point lay in the range of 198 to 199 °C. For `COc1cc(OCCN2CCCCC2)ccc1/C=C/c1cc(/C=C/c2ccc3cc[nH]c3c2)n[nH]1` the value was 150 to 155 °C; for `CCOC(=O)c1cc(OCC)c(OCC)cc1[N+](=O)[O-]`, 53 to 54 °C; for `O=C1Cc2cc(Cl)ccc2Oc2ccc(F)cc21`, 91 to 92 °C. Next, `[N-]=[N+]=Nc1ccc(C=Cc2ccncc2)cc1`: 88.2 to 89.4 °C. Next, `c1csc(-c2nc3ccc(N4CCNCC4)nn3c2-c2ccncc2)c1`: 217 to 220 °C. `COc1ccc(COC2C=C(C)C(=NN(C)C)CC(C)(C)C2OC)cc1` (stereo not drawn) gave a melting point of 71 to 72 °C. Take `O=C1NC(=O)C2(CCS(=O)(=O)c3ccccc32)N1` (stereo not drawn): the melting point is 280 to 281 °C. Consider `C#CCOC(=O)C1=C(C)NC(N)=C(C(=O)OCC)C1c1cccc([N+](=O)[O-])c1` (stereo not drawn), for which the melting point was 181 °C. For `CCOC(=O)c1ncn2c1C1C=CCN1C(=O)c1c(F)cccc1-2` (stereo not drawn) the value was 200 to 201 °C; for `O=Cc1ccc(N2C[C@H](CN3C(=O)c4ccccc4C3=O)OC2=O)cc1F`, 167 to 169 °C; for `OC(CNc1ccc(Cl)c(Cl)c1)Cn1ccnc1` (stereo not drawn), 98 to 100 °C. In the case of `O=C(Nc1cccc2c1C(=O)c1c-2n[nH]c1-c1ccc(N2CCC(N3CCCC3)CC2)cc1)NN1CCOCC1`, the melting point turned out to be 247 °C. `COC(=O)CCCOc1ccc(CC(C)NCC(O)c2cc3ccccc3o2)cc1` (stereo not drawn) came in with a melting point of 63 to 70 °C.

Compound `CSc1ccc(C)cc1S(=O)(=O)NC(C)(C)C` had a melting point of 119 to 121 °C. For `OC(CN1CCNC1=S)c1ccc(F)cc1` (stereo not drawn) the value was 130 °C; for `CN1C(=O)CC[C@]2(C)c3ccc(-c4ccc([N+](=O)[O-])cc4C(F)(F)F)cc3CC[C@@H]12`, 128 to 130 °C. Next, `COc1ccc(Cl)c(S(=O)(=O)NC(=O)c2cn3cc(C(F)(F)F)cc(Cl)c3n2)c1`: 211 to 212 °C; `CC1(C)COP(=O)(Cc2ccc(N)cc2)OC1`: 152 to 153 °C. For the compound `CC(SSc1ccccc1C(=O)Nc1ccc(S(N)(=O)=O)cc1)C(=O)NCC(=O)O` (stereo not drawn), the melting point lay within 254 to 256 °C. For `CC1(C)OC(=O)Nc2c(F)cc(-c3ccc(F)c(Cl)c3)cc21` the value was 246 to 248 °C; for `c1ccc2nn(-c3cscn3)cc2c1`, 146 to 147 °C. In the case of `COc1cc(C=C2CCN(C(=O)NOCc3ccccc3)C2=O)cc(OC)c1O`, the melting point was 167 to 170 °C. Next, `O=C1NC(=O)C(Cc2ccc(SCCCc3ccccc3)cc2)S1` (stereo not drawn): 88 to 89 °C; `COc1cc(-c2nc3ccc(OCCN4CCOCC4)cc3n2Cc2ccccc2C(F)(F)F)cc(OC)c1OC`: 175 °C.

In turn, `C(=C\c1nc(COc2ccc(-n3ccnc3)cc2)co1)/c1ccccc1` returned a melting point of 160 to 162 °C. Next, `CCCCCCCCCCCCCCNC(=O)Oc1ccc([N+](=O)[O-])cc1OC(=O)NCCCCCCCCCCCCCC`: 100 to 104 °C; `Cc1cc(C#Cc2ccc(F)cc2)nc(Oc2cc(C(F)(F)F)nn2C)c1`: 86 to 87 °C. As for `CN(CCOc1ccc([N+](=O)[O-])cc1)c1ccncc1`, the melting point lay within 88 to 89 °C. For `COc1ccc(Nc2ccc(O)cc2)c(C(C)=O)c1` the value was 118 to 119 °C; for `COCON=C(C(=O)C=CN(C)C)C(=O)OC`, 99 to 100 °C. Turning to `Cn1c(C(=O)N(Cc2cc(C(F)(F)F)cc(C(F)(F)F)c2)Cc2cc(C(F)(F)F)cc(C(F)(F)F)c2)c(-c2ccc(F)cc2)c2cccnc2c1=O`, the melting point is 252 to 254 °C.

With `CCc1nc2c(cnn2CC)c(NC2CCOCC2)c1CNC(=O)c1cccc(C(=O)NCc2ccc(F)c(-c3cccc(CN4CCCNCC4)c3)c2)c1`, the melting point was in the range of 145 to 148 °C. For `O=C(c1cc(-n2cnnn2)ccc1O)N1CCC(CCO)(c2ccccc2)C1` (stereo not drawn) the value was 86 to 96 °C; for `C[C@]12CC(I)C(=O)C=C1CC[C@@H]1[C@@H]2CC[C@]2(C)C(=O)CC[C@@H]12` (stereo partly drawn), 92 °C; for `O=C(NCCCCOc1ccc(-n2ccnc2)cc1)c1ccccc1`, 117 to 118 °C.

Turning to `CN(CCSCc1nc[nH]c1CSCCN(C)C(N)=S)C(N)=S`, the melting point was in the range of 154 to 155 °C. For `COc1cc(NS(=O)(=O)c2ccc(Cl)cc2)c(C(=O)O)cc1OC` the value was 168 to 169 °C; for `Cc1ccc(Oc2ccc(C3NC(C(=O)O)CS3)cc2C#N)c(O)c1` (stereo not drawn), 150 to 152 °C; for `Nc1nc(-c2ccccc2)nc2nc(-c3ccco3)nn12`, greater than 300 °C.

On to `COc1ccc(CCNC(=O)CNc2ccc(C)cc2)cc1OC`, for which the melting point was 87 to 88.5 °C.

Regarding `COC(=O)c1cnccc1SCc1ccc(OC)cc1`, the melting point lay in the range of 108 to 110 °C.

For the compound `O=C(CC(=O)c1ccc(C(F)(F)F)cc1[N+](=O)[O-])c1ccccc1`, the melting point was in the range of 101 to 103 °C.

Regarding `CCOCc1nc2c(N)nc3cc(OCc4ccccc4)ccc3c2n1CC(C)(C)O`, the melting point is 215 to 216 °C.

On to `COc1ccc(-c2cc3cc(OC)cc(C(=O)O)c3o2)cc1`, for which the melting point fell in the range of 218 to 220 °C. Regarding `CCOC(=O)C1C(=O)CC(C)(O)C(C(=O)OCC)C1c1cc(OC)c2oc(C)c(C)c2c1` (stereo not drawn), the melting point lay within 157 to 158 °C. `CCC(=O)NNC(=O)C(=O)NC1CC(C)(C)NC(C)(C)C1`: the melting point is 221 to 225 °C. `Cc1cnc(-c2cc(=S)ss2)cn1` yielded a melting point of 192 °C. Turning to `COc1cc(O)c(C=O)cc1C12CC3CC(CC(C3)C1)C2`, the melting point fell in the range of 191 to 193 °C.

As to `CCCCCCNC(=O)OC1CCN(C(=O)OCCCCCCNC(=O)Oc2ccc(Oc3ccccc3)cc2)CC1`, the melting point was in the range of 84 to 86 °C. As for `COCc1cc(-c2nnc3c4ccccc4c(OCc4ncnn4C)nn23)no1`, the melting point fell in the range of 206 to 208 °C. Next, `CCCC(=O)c1cnc2c(C(=O)O)cccc2c1Nc1ccccc1C`: 179 to 180 °C. Compound `Cc1cccc(C)c1CNc1cc(C(=O)O)cc2c1nc(C)n2C` yielded a melting point of 315 to 318 °C.

Compound `CCCOc1ccc(Nc2c([N+](=O)[O-])ccc(Cl)c2C(=O)O)cc1` came in with a melting point of 194 to 196 °C. For `CC1CNc2c(cccc2[N+](=O)[O-])C(=O)N1Cc1ccccc1` (stereo not drawn) the value was 125 °C; for `CCCCNc1cc(Cl)c(S(C)(=O)=O)cc1C(=O)O`, 187 to 189 °C. For `CCCCCCCCCCCCc1cnn(C(C(=O)Nc2c(OC)cc(OC)cc2OC)c2ccccc2)n1` (stereo not drawn), the melting point was 123 to 125 °C.

In turn, `CC(=O)c1[nH]c(-c2ccc(O)cc2)nc1C` registered a melting point of 300 °C.

In the case of `COc1ccc(C(=O)Nc2cccc(C3(C#N)CCCC3)c2)cc1OC`, the melting point was 59 to 61 °C.

Compound `CC(C)(C)OC(=O)COc1cc2cc(C(C)(C)O)sc2c(Cl)c1Cl` had a melting point of 137 to 138 °C. For `CN(Cc1cccc2c1CN(C1CCC(=O)NC1=O)C2=O)C(=O)Nc1ccc2ccccc2c1` (stereo not drawn) the value was 216 to 218 °C. Next, `CN(CS(C)(=O)=O)C(=O)Nc1ccc(Cl)c(Cl)c1`: 159 °C; `c1ccc(CSc2nc3cc4c(cc3[nH]2)OCCO4)nc1`: 155 to 156 °C.

`CCOC(=O)CCCC(=O)c1ccc(-c2ccc(C)cc2)s1` displayed a melting point of 120 to 121 °C. For `CC(C)(C)C(=O)Oc1ccc(-c2nn(C3CCCC3)c3c(F)cccc23)cc1` the value was 105 °C.

The values are drawn from a melting point compilation (Tetko et al.; mined from patent text by program, amines drawn as free bases though some values may be those of a salt).
